Test results taken from patent publication US11883423B2, “Nucleobase analogue derivatives and their applications” (BOARD OF REGENTS, THE UNIVERSITY OF TEXAS SYSTEM, priority 2014, dated 2024).

Columns and labels:
[1] = parameters: species or system BALB/c mice; conditions: female, BALB/c, mouse, in vivo, iv, 75 mg/kg, 1 h
Method: The biodistribution of Gem-DHA was further evaluated in healthy BALB/c mice. Briefly, female BALB/c mice (Charles River, 14-16 weeks, n=3) were injected via the tail vein with Gem-DHA in a Tween 80/ethanol/water solution containing 5% (w/v) mannitol at a dose of 75 mg/kg. After 1 h, mice were euthanized to collect pancreas, lung, spleen, liver, heart, and kidneys. Gem-DHA was extracted from the samples and analyzed using HPLC. As a control, mice (n=3) were also injected with gemcitabine HCl (75 mg/kg) in 5% (w/v) mannitol solution and euthanized 1 h later to collect their pancreas. Gemcitabine was extracted using the following method. Briefly, once the pancreas was collected, it was weighed, placed into 0.25 ml of PBS containing 40 μg of tetrahydrouridine (a deoxycytidine deaminase inhibitor) and homogenized using a bead beater. Deoxyuridine (dU, 20 μl of 20 μg/ml) was then added into the homogenate as an internal standard. Acetonitrile was used to precipitate the proteins twice, and gemcitabine content in the supernatant was analyzed using HPLC. […] Therefore, it appeared that Gem-DHA preferred to distribute in pancreatic tissues.

Panc-02 cells = experiment: Apoptosis analysis, Annexin V staining and flow cytometry; assay type: cell-based, mouse; conditions: 48 h
Method: Apoptosis analysis was carried out as previously reported (Zhu S et al. Biomaterials. 2013, 34(9), 2327-2339). Briefly, 100,000 Panc-02 cells were incubated in 24-well plates for 24 h at 37° C. and 5% CO2 and then co-incubated with various concentrations of Gem-DHA for 48 h. The cells were then harvested and stained with 0.1 ml of Guava Nexin reagent (Millipore Corporation, Billerica, Mass.) for 20 min at room temperature, protected from light. The stained cells were analyzed using a Millipore Guava easyCyte 8HT Flow Cytometry System. Control cells were left untreated.

Panc-1-Luc tumors = experiment: Antitumor activity against orthotopic Panc-1-Luc tumors in nude mice, with tumor histology; assay type: in vivo
Excerpt: Nude mice with intrapancreatically injected Panc-1-Luc human pancreatic cancer cells were used as a mouse model of pancreatic cancer. The National Institutes of Health guidelines for animal use and care were followed Animal protocols were approved by the Institutional Animal Care and Use Committee at the University of Texas at Austin. Panc-1-Luc cells (Muniz VP et al. Mol Cancer Res. 2011, 9(7), 867-877) were implanted orthotopically by injecting 1×10^6 cells into (the tail of) the pancreas.
Panc-1-Luc cell suspension was prepared at a concentration of 2×10^7 per ml in a 1:1 (v/v) mixture of DMEM and Matrigel. Tumor cells were then injected into the pancreas of male athymic nude mice (6-8 weeks, Charles River Laboratories, Wilmington, Mass.) following a surgical procedure (Raut CP et al. Cancer Biol Ther. 2004, 3(12), 1217-1224; Bruns CJ et al. Neoplasia. 1999, 1(1), 50-62). Briefly, after mice were anesthetized using isoflurane, the skin and peritoneum were cut open about 1 cm in length using sterile surgical scalpels. The pancreas was pulled out, and 50 μL of the cell suspension were injected slowly until a small bleb was formed. After the needle was withdrawn, a small cotton plug was applied for 10 s. The pancreas was returned back, the peritoneum was sutured with Monocryl™ bioresorbable sutures (Ethicon, Somerville, N.J.), and the skin was then closed using surgical clips. Mice were s.c. injected with buprenorphine (0.1 mg/kg) as a pain killer and were left to heal for one week. Tumor progress was monitored using an IVIS™ Spectrum imaging system (Caliper, Hopkinton, MA). For IVIS imaging, each mouse was i.p. injected with a luciferin solution (15 mg/ml) at a dose of 0.15 mg/g body weight in sterile DPBS, anesthetized with isoflurane, and imaged 10 min after luciferin injection. Four weeks after tumor implantation, mice with tumors were randomized into 3 groups (n=5-7) and intraperitoneally injected (i.p) with Gem-DHA (50 mg/kg, ˜0.087 mmole/kg), gemcitabine HCl (26.1 mg/kg, ˜0.087 mmole/kg), or left untreated. Gem-DHA was in a Tween 80/ethanol/water solution with 5% (w/v) of mannitol, and gemcitabine HCl was in sterile mannitol solution (5%, w/v). Treatments were repeated twice a week for a total 7 doses. Thirty days after the first treatment, mice were sacrificed and tumors were dissected from the pancreas, weighed, and fixed in formalin. The doses were based on the average weight of mice in the same group on the day of injection, and were adjusted only if the weight of an individual mouse was above or below 10% of the average weight.
Tumor tissues were sectioned and stained in the Histology and Tissue Analysis Core at Dell Pediatric Research Institute at the University of Texas at Austin or in the Department of
Molecular Carcinogenesis at the University of Texas M.D. Anderson Cancer Center at Science Park (Smithville, Texas) with hematoxylin & eosin (H&E), antibodies against cleaved lamin-A (apoptosis marker), CD-31 (angiogenesis marker), or Ki-67 (proliferation marker). Slides were then scanned, and images were taken using the ScanScope XT (Aperio Technologies, Vista, CA). […] In addition, several areas of necrosis can also be seen in the centers of the tumors. […] Several pyknotic cells with condensed chromatin can also be seen in tumors in mice that were treated with Gem-DHA.

[2] = test system: TC-1 mouse lung cancer cells; experiment: Anti-proliferative activity, MTT assay, TC-1 cells; assay type: cell-based; conditions: 24 h
Method: The anti-proliferative activity of Gem-DHA was evaluated in Panc-02, TC-1, Panc-1-Luc, and BxPC-3 cell lines. For Panc-02 and TC-1 cells, cells (1,500/well for Panc-02 and 3,000/well for TC-1) were seeded in 96-well plates and incubated at 37° C. and 5% CO2 overnight. The cells were then treated with various concentrations of Gem-DHA or other compounds for 24 h. For BxPC-3 and Panc-1-Luc cells, 3,000 and 1,000 cells/well were used, respectively, and cells were co-incubated with the Gem-DHA for 72 h. Cell viability was determined using an MTT assay as previously described (Naguib YW et al. Mol Pharm. 2014, 11(4), 1239-1249). Gemcitabine HCl was dissolved in cell culture medium, whereas Gem-DHA and DHA were dissolved in dimethylsulfoxide (DMSO). The values of IC50 were calculated using GraphPad Prism (GraphPad software, Inc., La Jolla, CA).

[3] = test system: NCI-60 human tumor cell lines; experiment: NCI-60 DTP Human Tumor Cell Line Screen, single dose; assay type: cell-based
Method: The cytotoxicity of Gem-DHA was also tested using the NCI-60 DTP Human Tumor Cell Line Screen service.

## CC/C=C\C/C=C\C/C=C\C/C=C\C/C=C\C/C=C\CCC(=O)Nc1ccn(C2OC(CO)C(O)C2(F)F)c(=O)n1 (stereo not drawn) [Gem-DHA, 4-(N)-Docosahexaenoyl Difluorodeoxycytidine]
[1]
  Percent of injected compound recovered in each gram of pancreas: 0.37±0.18%
Panc-02 cells
  Pro-apoptotic activity, Annexin V staining: concentration-dependent apoptosis
Panc-1-Luc tumors; compared with tumors of untreated mice
  H&E histology of tumor tissue: less densely packed cancer cells
Panc-1-Luc tumors; i.p., ~0.087 mmole/kg (Gem-DHA 50 mg/kg, gemcitabine HCl 26.1 mg/kg), twice a week, 7 doses
  Inhibition of growth of Panc-1-Luc tumors: more effective than the molar equivalent dose of gemcitabine HCl
Panc-1-Luc tumors; versus mice treated with gemcitabine HCl
  Percent of Ki-67 positive cells in tumors: significantly lower percent of Ki-67 positive cells
Panc-1-Luc tumors; versus untreated mice
  Cleaved lamin-A positive staining in tumors: significantly higher percent of positive staining
  Micro-vessel density (MVD) in tumors, anti-CD-31 staining: significantly lower than in mice that were not treated
[2]
  Inhibition of tumor cell growth (comparison): more effective than gemcitabine alone or the physical mixture of gemcitabine and DHA
[3]
  Growth inhibition in NCI-60 screen: inhibited the growth of various types of human tumor cells
